According to US8609151B2, “Treatment of erectile dysfunction and libido enhancement” (CSIR, priority 2006, dated 2013):
Values after ≈ are worked out from the molar mass of the structure shown. “Also recorded” adds a separate entry of the source. Read-outs that look alike come from different tables or passages of the source.

Experiments:
[1] = system: Chinese hamster ovarian cells (CHO); assay: in vitro cytotoxicity, MTT assay; conditions: for IC50: Cricetulus griseus; for cytotoxicity against Chinese hamster ovarian cells: at the test concentrations
Experimental: In vitro cytotoxicity against mammalian cell line was assayed against Chinese hamster ovarian cells by the Assay Laboratory of the Department of Medicine, Division of Pharmacology, University of Cape Town, South Africa.
All samples were tested in triplicate on a single occasion. The MTT-assay was used as a calorimetric assay for cellular growth and survival, and compares well with other available assays (Mosman, Journal of Immunological Methods 65, 55-63 (1983) and Rubinstein et al., Journal of the National Cancer Institute 82, 1113-8 (1990)). The tetrazolium salt MTT was used to measure all growth and chemosensitivity.
Aqueous samples were dissolved in water and organic samples were dissolved in a methanol:water mixture (1:9) by volume. The initial concentration of stock solutions was 2 mg/ml for all samples. Samples were stored at −20° C. until use. […] Emetine was used as the positive control in all experiments. The initial concentration of emetine was 100 μg/ml, which was serially diluted in complete medium with 10-fold dilutions to give 6 concentrations, the lowest being 0.001 μg/ml. The same dilution technique was applied to all other samples with an initial concentration of 100 μg/ml to give 5 concentrations, with the lowest concentration being 0.01 μg/ml.
The 50% inhibitory concentration (IC50) values for these samples were obtained from dose-response curves, using a non-linear dose-response curve fitting analyses via GraphPad Prism v.2.01 software.

[2] = system: rabbit corpus cavernosal smooth muscle; assay: relaxation of CaCl2 pre-contracted rabbit corpus cavernosal smooth muscle strips (University of Pretoria); format: cell-based
Experimental: Strips (12 mm long and 1-2 mm thick) of rabbit corpus cavernosal smooth muscle were dissected and mounted in an organ-bath chamber containing Krebs-PSS solution with the following composition: […] One end of the muscle was tied to the inside bottom of the perfusion bath and the other end to a thin wire connected to a Harvard isotonic force transducer for isotonic tension measurements. Changes in isotonic tension were recorded on a computerized calibrating program. […] This was followed by perfusion with 2 ml of high CaCl2 in Krebs-PSS (17.8 mg/ml) for muscle contraction. Base-line tension was set at the point of maximal contraction following the addition of CaCl2 into the experimental bath. The extracts to be analyzed were added after a stable contraction base-line. The same procedure was repeated for the positive control, Sildenafil. The contraction/relaxation was reported relative to Sildenafil tested at 78 ng/ml.

[3] = target: T1, Phosphodiesterase 5 enzyme, partially purified from human platelets (Homo sapiens, UniProt O76074); assay: in vitro inhibition of the phosphodiesterase 5 enzyme (MDS Pharma); format: biochemical
T1 construct: Phosphodiesterase 5 enzyme, partially purified from human platelets, was used; tissue MDS Pharma Laboratory in Taiwan (assay performed there); host or cells: human platelets
Experimental: Inhibition of the phosphodiesterase 5 enzyme limits the hydrolysis of cyclic Guanisine MonoPhosphate (cGMP) to acyclic Guanisine MonoPhosphate (5′GMP) and thereby increases the intracellular concentrations of cGMP which results in the relaxation of the corpus cavernosum smooth muscle. When this muscle is relaxed blood flows and fills the arteries causing the penis to erect.
The assay of the inhibition of the phosphodiesterase 5 enzyme was carried out by the MDS Pharma Laboratory in Taiwan. Phosphodiesterase 5 enzyme, partially purified from human platelets, was used. Test compounds and/or vehicles were incubated with 3.5 μg enzyme and 1 μM cGMP containing 0.01 μM [^3H]cGMP in Tris buffer at pH 7.5 for 20 minutes at 30° C. The reaction was terminated by boiling for 2 minutes and the resulting GMP was converted to guanosine by addition of 10 mg/ml snake venom nucleotidase and further incubation at 30° C. for 10 minutes. Unhydrolyzed cGMP was bound to AG1-X2 resin, and remaining [^3H]guanosine in the aqueous phase was quantitated by scintillation counting. […] Since enzyme activity could change from lot to lot, the concentration used was adjusted if necessary.

rabbit corpus cavernosum = rabbit corpus cavernosum relaxation/contraction, phenylephrine-contracted strip (MDS Pharma); format: cell-based; conditions: for Smooth Muscle relaxation (%) at 30 μM: relative to 0.3 μM sodium nitroprusside response, significant at ≧50%; for rabbit corpus cavernosum smooth muscle relaxation: isolated compounds at test concentration
Experimental: Rabbit corpus cavernosum relaxation/contraction was measured by the MDS Pharma Laboratory. Corpus cavernosum obtained from New Zealand-derived albino male rabbits weighing 2.5-3 kg and sacrificed by CO2 overexposure was used. A strip from the basal area of the corpus cavernosal was removed and placed under 2 g tension in a 10 ml bath containing Krebs solution at pH 7.4 at 32° C. and sub-maximal isometrically recorded tonic contraction was induced by phenylephrine (3 μM).

[4] = read-out: Chinese hamster ovarian cell test IC50, MTT assay, triplicate, values ≦1.0 considered cytotoxic
[5] = read-out: Phosphodiesterase 5 enzyme inhibition (%) at 10 μM, 10 μM, significant at ≧50%

Structure (SMILES)	IC50 [1, 4]	inhibition at 10 µM [3, 5]	Smooth Muscle relaxation (%) at 30 μM (rabbit corpus cavernosum)	cytotoxicity against Chinese hamster ovarian cells [1]	rabbit corpus cavernosum smooth muscle relaxation (rabbit corpus cavernosum)	also measured
CC[C@H]1CN2CCc3cc(OC)c(OC)cc3[C@@H]2C[C@@H]1C[C@H]1NCCc2cc(OC)c(OC)cc21 [Emetine, reference compound]	0.04 µg/mL (≈ 0.0832 µM)					
CCCc1nn(C)c2c(=O)[nH]c(-c3cc(S(=O)(=O)N4CCN(C)CC4)ccc3OCC)nc12 [Viagra]						relaxation ([2]; at […] 10^−2 μg/ml, footnote of Table 14, same figure as the Table 13 footnote): 100%; smooth muscle relaxation ([2]; at […] 10^−5 mg/ml, positive control): Viagra showed 100% smooth muscle relaxation at 1.8 × 10^−5 mg/ml
COc1ccc(CC2COC(=O)/C2=C\c2ccc3c(c2)OCO3)cc1OC (stereo not drawn) [Compound 6, 3-(1′,3′-benzodioxol-5′-ylmethylene)-4-(3″,4″-dimethoxybenzyl)dihydrofuran-2(5H)-one]	> 100 µg/mL	35%	71%	non-cytotoxic; also recorded: least toxic		
COc1ccc(-c2c3c(c(OC)c4cc5c(cc24)OCO5)C(=O)OC3)cc1OC [Compound 7, 4-(3′,4′-dimethoxyphenyl)-9-methoxy-6,7-methylenedioxynaphtho[2,3-c]furan-1(3H)-one]			57%	non-cytotoxic; also recorded: least toxic	observed	Phosphodiesterase 5 enzyme inhibition (%) at 10 μM ([3]; 10 μM, significant at ≧50%): 53%; phosphodiesterase 5 enzyme inhibition ([3]; isolated compounds at test concentration): Significant inhibition; Chinese hamster ovarian cell test IC50 ([1]; MTT assay, triplicate, values ≦1.0 considered cytotoxic): >100 µg/mL
COc1ccc(-c2c3c(c(O)c4cc5c(cc24)OCO5)COC3=O)cc1OC [Compound 5, 9-(3′,4′-dimethoxyphenyl)-4-hydroxy-6,7-methylenedioxynaphtho[2,3-c]furan-1(3H)-one]	28.5 µg/mL (≈ 74.9 µM)	29%	75%	non-cytotoxic	observed	
COc1cc2c(-c3ccc4c(c3)OCO4)c3c(c(OC)c2c(OC)c1OC)COC3=O [Compound 3, 9-(1′,3′-benzodioxol-5′-yl)-4,5,6,7-tetramethoxynaphtho[2,3-c]furan-1(3H)-one]			62%			inhibition at 10 µM ([3]; read-out: Phosphodiesterase 5 enzyme inhibition (%) at 10 μM): 11%; IC50 ([1]; read-out: Chinese hamster ovarian cell test IC50): 9 µg/mL (≈ 21.2 µM)
